Reference: patent EP4813381A1, “PHARMACEUTICAL USE OF GUAIANE SESQUITERPENE DERIVATIVE” (Nanjing University Of Chinese Medicine, priority 2023, dated 2025)

Legend:
[1] = tested on: inflammatory cytokines (TNF, IL-6, IL-1); test: LPS mouse sepsis model: Q-PCR of inflammatory factor mRNA in lung, liver and kidney; assay type: in vivo, C57BL/6 mice; settings: sepsis mice, 5 mg/kg
From the text: Gently pipette to mix the above reagents. The reaction conditions are as follows:
Detailed information is as follows:

[2] = tested on: MC903-induced atopic dermatitis (AD); test: MC903-induced ear atopic dermatitis mouse model, Compound 1 ointment: ear thickness and dermatitis score; assay type: in vivo, mice; settings: for ear thickness: 1% ointment
Description: Weigh white petrolatum, light liquid paraffin, glyceryl monostearate, ethylparaben, and cetyl alcohol. Heat to 65 °C while stirring until dissolved. Slowly add the dissolved active pharmaceutical ingredient (API) while continuing to stir until uniformly mixed. Set aside. • (2) Aqueous Phase Preparation: […] Slowly add the aqueous phase to the oil phase while maintaining 65 °C, homogenize, and continue stirring for 30 min; • (4) Cooling: Stop heating, continue stirring, gradually reduce to room temperature, cool to form an ointment, and fill containers. […] Dissolve these substances in a small amount of propylene glycol, then place the resulting solution into the aforementioned pre-cooled blank ointment base. […] Skin Lesion Severity Score: […] Statistical analysis was performed on the data.

[3] = tested on: Th2-related factors Il4, Il13, Il31 and inflammatory factors Tslp, Tnf, Il1; test: MC903-induced ear atopic dermatitis mouse model, Compound 1 ointment: Q-PCR of ear; assay type: in vivo; design: unit not given here; settings: ear mRNA, AD mice, 1% ointment
Description: Except for the Normal group, all other groups underwent AD modeling: 20 µL of MC903 solution (also known as calcipotriol, purchased from Shanghai Yuanye Biotechnology Co., Ltd., used for inducing atopic models) was applied to each mouse's ears once daily for 14 consecutive days to induce the atopic dermatitis model. […] Measure ear thickness changes every 2 days using an electronic caliper before modeling and after treatment initiation.

[4] = tested on: MC903-induced atopic dermatitis (AD); test: MC903-induced AD model on the dorsum of mice, Compound 1 ointment: skin thickness and dermatitis score; assay type: in vivo; design: Skin thickness: unit not given here
Description: Weigh white petrolatum, light liquid paraffin, glyceryl monostearate, ethylparaben, and cetyl alcohol. Heat to 65 °C while stirring until dissolved. Slowly add the dissolved active pharmaceutical ingredient (API) while continuing to stir until uniformly mixed. Set aside. • (2) Aqueous Phase Preparation: […] Slowly add the aqueous phase to the oil phase while maintaining 65 °C, homogenize, and continue stirring for 30 min; • (4) Cooling: Stop heating, continue stirring, gradually reduce to room temperature, cool to form an ointment, and fill containers. […] Dissolve these substances in a small amount of propylene glycol, then place the resulting solution into the aforementioned pre-cooled blank ointment base. […] Establishment of the AD Model on the Dorsum of Mice and Drug Administration: […] Except for the Normal group, all other groups underwent AD modeling: 48 hours prior to the experiment, hair on the dorsal neck region was meticulously removed using clippers and depilatory cream. […] Model and control group mice received daily application of blank ointment. Twenty-four hours after completing the 14-day modeling period, photographs of skin lesions were taken, and skin lesion and blood samples were collected. Skin Lesion Severity Score: […] Statistical analysis was performed on the data.

[5] = tested on: Human keratinocytes (Hacat); test: Hyaluronic acid and hyaluronidase levels in UVB-irradiated human keratinocytes; assay type: cell-based; settings: UVB 90 mJ/cm^2, 24 h, 1 µM
Description: Human keratinocytes (Hacat) were cultured routinely in DMEM medium containing 10% FBS within a 5% CO2 incubator.

Rat mast cells (RBL-2H3) = test: Mast cell degranulation test (anti-DNP IgE / DNP-HSA); assay type: cell-based; settings: RBL-2H3, IgE+HSA, 4 h, 1 µM
Description: Rat mast cells (RBL-2H3) were cultured routinely in DMEM medium containing 10% FBS within a 5% CO2 incubator. Upon reaching 70-80% confluence, cells were uniformly seeded at a density of 1 × 10^5 cells/mL into 6-well plates (2 mL per well), divided into the following groups: Normal, IgE+HSA, Compound 1 (0.01, 0.1, 1, 10 µM). Mast cells were sensitized with 500 µg/L anti-DNP IgE for 12 h. washed with PBS, and cultured for an additional 12 h with 100 µg/L DNP-HSA. Compound 1 at the specified concentrations was then added. […]

[6] = tested on: inflammatory factors Tslp, Tnf and Th2-associated factors Il4, Il13, Il31; test: MC903-induced ear atopic dermatitis mouse model, oral Compound 20: Q-PCR of ear; settings: ear mRNA, AD mice, 5 mg/kg
[7] = tested on: MC903-induced atopic dermatitis (AD); test: MC903-induced ear atopic dermatitis mouse model, oral Compound 20: dermatitis score, ear thickness, serum IgE; settings: 5 mg/kg

In the case of `C[C@@H]1C[C@H]2[C@@H]3CCC4=CC(=O)C=C[C@]4(C)[C@@]3(F)[C@@H](O)C[C@]2(C)[C@@]1(O)C(=O)CO` [Dex, Dexamethasone, reference compound], the Tnf ([1]; kidney mRNA (relative, Gapdh)) is reported as 6.62±0.68, the Tnf ([1]; liver mRNA (relative, Gapdh)) is reported as 7.04±0.77 and the Tnf ([1]; lung mRNA (relative, Gapdh)) is reported as 8.99 ± 0.76. The ear thickness ([2]; Day 1) was 0.15±0.00 mm, the ear thickness ([2]; Day 3) was 0.18±0.00 mm and the ear thickness ([2]; Day 5) was 0.22±0.00 mm. The ear thickness ([2]; Day 7) was 0.24±0.01 mm, the ear thickness ([2]; Day 8) was 0.24±0.00 mm and the ear thickness ([2]; Day 9) was 0.24±0.01 mm. For the same molecule, the ear thickness ([2]; Day 10) was 0.25±0.01 mm, the ear thickness ([2]; Day 11) was 0.26±0.01 mm and the ear thickness ([2]; Day 12) was 0.28±0.00 mm. For the same molecule, the ear thickness ([2]; Day 13) was 0.27±0.01 mm, the ear thickness ([2]; Day 14) was 0.26±0.01 mm and the “Dermatitis Score” value ([2]; ear, 1% ointment for 7 days, score max 12) was 3.50±0.22. For the same molecule, the TSLP [3] was 1.30 ±0.17, the Tnf [3] was 1.38 ±0.22 and the “Dermatitis Score” value ([4]; back, 1% ointment for 7 days, score max 12) was 4.17±0.31. It also gave a Skin thickness ([4]; dorsal region, AD mice, 1% ointment) of 30.44±0.62, a Hyaluronidase [5] of 87.14 ± 9.63 ng/mL and a β-Glucosaminidase (Rat mast cells (RBL-2H3)) of 9.78 ± 0.01 ng/mL. It also gave a TSLP [6] of 2.13±0.26, a Tnf [6] of 2.30±0.36 and an atopic dermatitis score ([7]; Day 1) of 0.00±0.00. The ear thickness ([7]; Day 1) was 0.20±0.00 mm, the atopic dermatitis score ([7]; Day 3) was 0.67±0.21 and the ear thickness ([7]; Day 3) was 0.23±0.00 mm. It also gave an atopic dermatitis score ([7]; Day 5) of 1.50±0.22, an ear thickness ([7]; Day 5) of 0.25±0.00 mm and an atopic dermatitis score ([7]; Day 7) of 2.00±0.26. It also gave an ear thickness ([7]; Day 7) of 0.26±0.00 mm, an atopic dermatitis score ([7]; Day 8) of 2.83±0.31 and an ear thickness ([7]; Day 8) of 0.26±0.00 mm. The atopic dermatitis score ([7]; Day 9) was 3.00±0.00, the ear thickness ([7]; Day 9) was 0.27±0.00 mm and the atopic dermatitis score ([7]; Day 10) was 3.17±0.17. The ear thickness ([7]; Day 10) was 0.28±0.00 mm, the atopic dermatitis score ([7]; Day 11) was 3.50±0.22 and the ear thickness ([7]; Day 11) was 0.27±0.00 mm. For the same molecule, the atopic dermatitis score ([7]; Day 12) was 3.00±0.26, the ear thickness ([7]; Day 12) was 0.27±0.00 mm and the atopic dermatitis score ([7]; Day 13) was 2.67±0.21. It also gave an ear thickness ([7]; Day 13) of 0.27±0.00 mm, an atopic dermatitis score ([7]; Day 14) of 2.00±0.26 and an ear thickness ([7]; Day 14) of 0.26±0.00 mm. It also gave an IgE ([7]; serum, AD mice) of 191.65 ± 39.26 ng/mL.
